Columns and labels:
Test in all cases: relative viability (nuclei count vs DMSO), 5 days (fraction); higher = more cells survive
Alpelisib + Pemetrexed = compound: Cc1nc(NC(=O)N2CCC[C@H]2C(N)=O)sc1-c1ccnc(C(C)(C)C(F)(F)F)c1 [Alpelisib] + Nc1nc2[nH]cc(CCc3ccc(C(=O)N[C@@H](CCC(=O)O)C(=O)O)cc3)c2c(=O)[nH]1 [Pemetrexed] (partner 0.2 µM)
Summary of the method: (§1)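 Lung cancer cell lines were seeded in 1536-well plates and dosed by pin tool the next day, with either a single drug or a fixed anchor-drug dose combined with five library-drug doses (not always all listed) spaced in √10 steps. Five days later, one step fixed the cells and stained their nuclei (final 0.05% Triton X-100, 1% formaldehyde, 1 ug/ml Hoechst), and nuclei were counted on 4× images. Relative viability is the nuclei count in treated wells divided by the count in vehicle wells, and each value is the median of duplicate plates.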

Alpelisib + Trametinib = compound: Cc1nc(NC(=O)N2CCC[C@H]2C(N)=O)sc1-c1ccnc(C(C)(C)C(F)(F)F)c1 [Alpelisib] + CC(=O)Nc1cccc(-n2c(=O)n(C3CC3)c(=O)c3c(Nc4ccc(I)cc4F)n(C)c(=O)c(C)c32)c1 [Trametinib] (partner 0.02 µM)
Summary of the method: as §1

Vemurafenib + Alpelisib = compound: CCCS(=O)(=O)Nc1ccc(F)c(C(=O)c2c[nH]c3ncc(-c4ccc(Cl)cc4)cc23)c1F [Vemurafenib] + Cc1nc(NC(=O)N2CCC[C@H]2C(N)=O)sc1-c1ccnc(C(C)(C)C(F)(F)F)c1 [Alpelisib] (partner 2 µM)
Summary of the method: as §1

OSI-027 + Pictilisib = compound: COc1cccc2cc(-c3nc([C@H]4CC[C@H](C(=O)O)CC4)n4ncnc(N)c34)[nH]c12 [OSI-027] + CS(=O)(=O)N1CCN(Cc2cc3nc(-c4cccc5[nH]ncc45)nc(N4CCOCC4)c3s2)CC1 [Pictilisib] (partner 1 µM)
Summary of the method: as §1

Cell Line | relative viability (Alpelisib + Pemetrexed; first compound 0.04 µM) | relative viability (Alpelisib + Pemetrexed; first compound 0.1265 µM) | relative viability (Alpelisib + Pemetrexed; first compound 0.4 µM) | relative viability (Alpelisib + Pemetrexed; first compound 1.265 µM) | relative viability (Alpelisib + Pemetrexed; first compound 4 µM) | relative viability (Alpelisib + Trametinib; first compound 0.04 µM) | relative viability (Alpelisib + Trametinib; first compound 0.1265 µM) | relative viability (Alpelisib + Trametinib; first compound 0.4 µM) | relative viability (Alpelisib + Trametinib; first compound 1.265 µM) | relative viability (Alpelisib + Trametinib; first compound 4 µM) | relative viability (Vemurafenib + Alpelisib; first compound 0.03162 µM) | relative viability (Vemurafenib + Alpelisib; first compound 0.3162 µM) | relative viability (Vemurafenib + Alpelisib; first compound 1 µM) | relative viability (OSI-027 + Pictilisib; first compound 0.01 µM) | relative viability (OSI-027 + Pictilisib; first compound 0.03162 µM) | relative viability (OSI-027 + Pictilisib; first compound 0.1 µM) | relative viability (OSI-027 + Pictilisib; first compound 0.3162 µM) | relative viability (OSI-027 + Pictilisib; first compound 1 µM) | relative viability (Vemurafenib + Alpelisib; first compound 0.1 µM)
PC-3 [JPC-3] | 1.23 | 0.559 | 1.12 | 0.969 | 0.801 | 0.704 | 0.602 | 0.685 | 0.655 | 0.578 | 0.985 | 1.11 | 1.07 | 0.68 | 0.675 | 0.697 | 0.62 | 0.521 | –
PC-14 | 0.157 | 0.145 | 0.134 | 0.137 | 0.138 | 0.735 | 0.686 | 0.62 | 0.292 | 0.709 | 0.881 | 0.907 | 0.903 | 0.526 | 0.719 | 0.722 | 0.544 | 0.171 | –
RERF-LC-KJ | 0.504 | 0.477 | 0.456 | 0.406 | 0.464 | 0.86 | 0.933 | 0.895 | 0.645 | 0.693 | 0.583 | 0.873 | 0.771 | 0.508 | 0.542 | 0.492 | 0.393 | 0.344 | 0.686
SK-LU-1 | 1.04 | 0.987 | 0.938 | 0.909 | 0.955 | 0.474 | 0.566 | 0.53 | 0.392 | 0.345 | 0.996 | 0.682 | 0.758 | 0.529 | 0.462 | 0.355 | 0.272 | 0.287 | 0.96
SK-MES-1 | 0.954 | 0.955 | 1.07 | 0.868 | 0.689 | 0.59 | 0.523 | 0.534 | 0.334 | 0.385 | 0.829 | 0.723 | 0.776 | 0.323 | 0.362 | 0.333 | 0.278 | 0.252 | 0.574
SW 1573 | 0.837 | 0.871 | 0.812 | 0.741 | 0.711 | 0.562 | 0.586 | 0.553 | 0.363 | 0.388 | 0.769 | 0.781 | 0.551 | 0.466 | 0.436 | 0.458 | 0.357 | 0.205 | 0.667

Source: the supplement of paper PMC10307832
